Laboratory results reported in patent publication US8809333B2, “Imidazole, pyrazole, and triazole derivatives useful as antibacterial agents” (Pfizer Inc., priority 2011, dated 2014).
≈ marks a conversion by molar mass, not a printed value. Read-outs that look alike come from different tables or passages of the source.

Key:
[1] = test system: Pseudomonas aeruginosa UI-18: Wild-type (PA-7); assay: MIC determination (CLSI), PA-7; assay type: cell-based; details: read-out: PA-7 (MIC)
Method: (§1) The in vitro antibacterial activity of compounds described in the Examples was evaluated by minimum inhibitory concentration (MIC) testing according to Clinical and Laboratory Standards Institute (CLSI) Guidelines. See: Clinical and Laboratory Standards Institute. Methods for Dilution Antimicrobial Susceptibility Tests for Bacteria that Grow Aerobically; Approved Standard-Eighth Edition. CLSI document M7-A8 [ISBN 1-56238-689-1]. Clinical and Laboratory Standards Institute, 940 West Valley Road, Suite 1400, Wayne, Pa. 19087-1898 USA, 2006; also Clinical and Laboratory Standards Institute. Performance Standards for Antimicrobial Susceptibility Testing; Twentieth Informational Supplement. CLSI document M100-S20 [ISBN1-56238-716-2]. Clinical and Laboratory Standards Institute.
(§2) The MIC determination is a standard laboratory method for evaluating the antibacterial activity of a compound. The MIC represents the lowest drug concentration that inhibits visible growth of bacteria following overnight incubation. […] Typically, the drug concentration range is broken down into 2-fold increments (e.g. 0.06 μg/mL, 0.12 μg/mL. 0.25 μg/mL, 0.50 μg/mL, 1.0 μg/mL, etc.) and the various drug concentrations are all individually incubated overnight with approximately the same number of bacteria. The MIC is then determined by visually inspecting the drug effect at each concentration, and identifying the lowest drug concentration that has inhibited bacterial growth as compared to the drug free control. Typically, bacteria continue to grow at drug concentrations lower than the MIC and don't grow at concentrations at and above the MIC.
(§3) The MIC values described in Tables 2 and 3 below were derived from assays wherein each test compound was evaluated in duplicate. In cases where the duplicate values varied by 0-2-fold, the lower of the two values was reported below. Generally speaking, if the duplicate values varied by more than 2-fold, the assay was considered non-valid and was repeated until the variation between duplicate runs was ≦2-fold. In line with the CLSI guidelines referred to above, both control organisms and reference compounds were utilized in each MIC assay to provide proper quality control. MIC values generated with these control organisms and reference compounds were required to fall within a defined range for the assay to be considered valid and be included herein. Those skilled in the art will recognize that MIC values can and do vary from experiment to experiment. Generally speaking, it should be recognized that MIC values often vary +/−2-fold from experiment to experiment. While a single MIC is reported for each compound and each microorganism, the reader should not conclude that each compound was only tested once. Several of the compounds were subjected to multiple tests. The data reported in Tables 2 and 3 is reflective of the compounds relative activity and different MICs may have been generated on these occasions in line with the guidelines described above.
(§4) The following bacterial strains were used in these MIC determinations:
(4) Pseudomonas aeruginosa UI-18: Wild-type, labeled as PA-7 in Table 5;

[2] = test system: Klebsiella pneumoniae: Ciprofloxacin-resistant isolate, expresses ESBL, clinical isolate (KP-3700); assay: MIC determination (CLSI), KP-3700; assay type: cell-based; details: overnight incubation, lower of duplicate values
Method: as §1, §2, §3, §4
(3) Klebsiella pneumoniae: Ciprofloxacin-resistant isolate, expresses extended-spectrum beta-lactamases (ESBL), clinical isolate, labeled as KP-3700 in Table 5.

[3] = target: T1, Pseudomonas aeruginosa LpxC enzyme (Pseudomonas aeruginosa, UniProt P47205); assay: IC50 assay, LpxC enzyme from P. aeruginosa (BioTrove RapidFire mass spectrometry); assay type: biochemical
T1 construct: made in house; host or cells: E. coli
T1 sequence (P47205 1-303): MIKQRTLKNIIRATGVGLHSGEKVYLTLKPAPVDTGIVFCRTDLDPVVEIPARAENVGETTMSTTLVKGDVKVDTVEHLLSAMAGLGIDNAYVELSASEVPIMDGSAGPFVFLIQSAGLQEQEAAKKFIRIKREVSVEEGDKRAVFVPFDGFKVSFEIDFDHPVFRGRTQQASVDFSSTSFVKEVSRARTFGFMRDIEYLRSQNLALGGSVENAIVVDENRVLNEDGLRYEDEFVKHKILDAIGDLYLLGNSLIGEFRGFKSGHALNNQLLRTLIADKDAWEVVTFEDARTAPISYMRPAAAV
Method: In order to assess the compounds biological activity, selected in-vitro assays were conducted on selected compounds of Formula I. One of the assays measured the compounds ability to disrupt the synthesis of lipopolysaccharide, LPS, which is a component of the outer membrane of Gram-negative bacteria. Disruption of this synthesis is lethal to the bacteria. The assay determined the compound's ability to inhibit LpxC, which is the first enzyme in the biosynthetic pathway for LPS (measured as IC50). Additionally, MICs (minimal inhibitory concentrations) were determined for several bacteria. The specific protocols are described below:
A) IC50 Assay, LpxC Enzyme from P. Aeruginosa Labeled as PA LpxC Enzyme IC50):
At the end of 1 hour, 5 ul of 1 N HCl was added to stop the enzyme reaction, the plates were centrifuged, and then processed with the BioTrove Rapidfire HTMS Mass Spectrometry System. A no-enzyme control was used in calculating the IC50 values from the percent conversion values.

[4] = test system: Acinetobacter baumannii/haemolyticus: Multidrug-resistant clinical isolate (AB-3167); assay: MIC determination (CLSI), AB-3167; assay type: cell-based; details: read-out: AB-3167 (MIC)
Method: as §1, §2, §3, §4
(1) Acinetobacter baumannii/haemolyticus: Multidrug-resistant clinical isolate labeled as AB-3167 in Table 5;

[5] = test system: Escherichia coli EC-1: VOGEL, mouse virulent; assay: MIC determination (CLSI), EC-1; assay type: cell-based; details: Escherichia coli, read-out: EC-1 (MIC)
Method: as §1, §2, §3, §4
(2) Escherichia coli EC-1: VOGEL, mouse virulent labeled as EC-1 in Table 5;

[6] = Pseudomonas aeruginosa UI-18 wild-type, overnight incubation, lower of duplicate values
[7] = P. aeruginosa LpxC enzyme 0.1 nM, 25° C., 1 hour, pH 8.0, read-out: PA: IC50
[8] = Acinetobacter baumannii/haemolyticus multidrug-resistant clinical isolate, overnight incubation, lower of duplicate values

SMILES | MIC [1, 6] [µg/mL] | KP-3700 (MIC) [2] [µg/mL] | IC50 [3, 7] [nM] | MIC [4, 8] [µg/mL] | MIC [5] [µg/mL] | MIC ([1]; Pseudomonas aeruginosa) [µg/mL] | IC50 [3] [nM] | MIC ([4]; Acinetobacter baumannii) [µg/mL]
CC(CCn1cc(-c2cccc(OC(F)(F)F)c2)cn1)(C(=O)NO)S(C)(=O)=O (centres unmarked) [Example 88, N-hydroxy-2-methyl-2-(methylsulfonyl)-4-{4-[3-(trifluoromethoxy)phenyl]-1H-pyrazol-1-yl}butanamide] | 8 (≈ 19 µM) | >64.0 | 0.652 | 64 (≈ 152 µM) | 32 (≈ 75.9 µM) |  |  | 
C[C@@](CCn1cc(-c2cccc(Cl)c2Cl)nn1)(C(=O)NO)S(C)(=O)=O [Example 19, (2R)-4-[4-(2,3-dichlorophenyl)-1H-1,2,3-triazol-1-yl]-N-hydroxy-2-methyl-2-(methylsulfonyl)butanamide] |  | 16 |  |  | 8 (≈ 19.6 µM) | 4 (≈ 9.82 µM) | 1.95 | > 64
CC(CCn1cc(-c2ccccc2)cn1)(C(=O)NO)S(C)(=O)=O (centres unmarked) [Example 40, N-hydroxy-2-methyl-2-(methylsulfonyl)-4-(4-phenyl-1H-pyrazol-1-yl)butanamide] | 2 (≈ 5.93 µM) | >64.0 |  | > 64 | 32 (≈ 94.8 µM) |  | 4.63 | 
Cc1cc(O)ccc1-c1cnn(CCC(C)(C(=O)NO)S(C)(=O)=O)c1 (centres unmarked) [Example 49, N-hydroxy-4-[4-(4-hydroxy-2-methylphenyl)-1H-pyrazol-1-yl]-2-methyl-2-(methylsulfonyl)butanamide] | > 64 | >64.0 | 90.4 | > 64 | > 64 |  |  | 
CC(CCn1cc(-c2cc(F)ccc2F)cn1)(C(=O)NO)S(C)(=O)=O (centres unmarked) [Example 56, 4-[4-(2,5-difluorophenyl)-1H-pyrazol-1-yl]-N-hydroxy-2-methyl-2-(methylsulfonyl)butanamide] | 8 (≈ 21.4 µM) | >64.0 | 6.75 | > 64 | 32 (≈ 85.7 µM) |  |  | 
CC(C)COc1ccc(-c2cnn(CCC(C)(C(=O)NO)S(C)(=O)=O)c2)cn1 (centres unmarked) [Example 81, N-hydroxy-2-methyl-4-{4-[6-(2-methylpropoxy)pyridin-3-yl]-1H-pyrazol-1-yl}-2-(methylsulfonyl)butanamide] | 32 (≈ 78 µM) | 32 | 2.07 | > 64 | 8 (≈ 19.5 µM) |  |  | 
Cc1cnn(CC[C@](C)(C(=O)NO)S(C)(=O)=O)c1 [Example 5, (2R)—N-hydroxy-2-methyl-4-(4-methyl-1H-pyrazol-1-yl)-2-(methylsulfonyl)butanamide] | 32 (≈ 116 µM) | >64.0 | > 100 | > 64 | > 64 |  |  | 
CC(CCn1cc(-c2ccc(C#N)c(Cl)c2)cn1)(C(=O)NO)S(C)(=O)=O (centres unmarked) [Example 64, 4-[4-(3-chloro-4-cyanophenyl)-1H-pyrazol-1-yl]-N-hydroxy-2-methyl-2-(methylsulfonyl)butanamide] | 4 (≈ 10.1 µM) | >64.0 | 0.62 | > 64 | 64 (≈ 161 µM) |  |  | 
COc1cccc(-c2cnn(CCC(C)(C(=O)NO)S(C)(=O)=O)c2)c1 (centres unmarked) [Example 51, N-hydroxy-4-[4-(3-methoxyphenyl)-1H-pyrazol-1-yl]-2-methyl-2-(methylsulfonyl)butanamide] | 16 (≈ 43.5 µM) | >64.0 | 7.3 | > 64 | > 64 |  |  | 
Cn1nccc1-c1ccc(-c2cnn(CCC(C)(C(=O)NO)S(C)(=O)=O)c2)cc1 (centres unmarked) [Example 82, N-hydroxy-2-methyl-4-{4-[4-(1-methyl-1H-pyrazol-5-yl)phenyl]-1H-pyrazol-1-yl}-2-(methylsulfonyl)butanamide] | 16 (≈ 38.3 µM) | 32 | 3.29 | > 64 | 8 (≈ 19.2 µM) |  |  | 
CC(CCn1cc(-c2ccc(-c3cnco3)cc2)cn1)(C(=O)NO)S(C)(=O)=O (centres unmarked) [Example 72, N-hydroxy-2-methyl-2-(methylsulfonyl)-4-{4-[4-(1,3-oxazol-5-yl)phenyl]-1H-pyrazol-1-yl}butanamide] | 2 (≈ 4.95 µM) | 16 | 0.373 | > 64 | 4 (≈ 9.89 µM) |  |  | 
C[C@@](CCn1cc(-c2ccc(F)c(F)c2F)nn1)(C(=O)NO)S(C)(=O)=O [Example 18, (2R)-N-hydroxy-2-methyl-2-(methylsulfonyl)-4-[4-(2,3,4-trifluorophenyl)-1H-1,2,3-triazol-1-yl]butanamide] |  |  | 3.29 |  |  |  |  | 
CC(CCn1cc(-c2cn(Cc3ccccc3)cn2)cn1)(C(=O)NO)S(C)(=O)=O (centres unmarked) [Example 83, 4-[4-(1-benzyl-1H-imidazol-4-yl)-1H-pyrazol-1-yl]-N-hydroxy-2-methyl-2-(methylsulfonyl)butanamide] |  |  | > 100 |  |  |  |  | 
C[C@@](CCn1cc(C2=CCCCC2)cn1)(C(=O)NO)S(C)(=O)=O [Example 1, (2R)-4-[4-(cyclohex-1-en-1-yl)-1H-pyrazol-1-yl]-N-hydroxy-2-methyl-2-(methylsulfonyl)butanamide] | 1 (≈ 2.93 µM) | 16 |  | > 64 | 8 (≈ 23.4 µM) |  |  | 
CC(CCn1cc(-c2cn(-c3ccc(F)cc3)cn2)cn1)(C(=O)NO)S(C)(=O)=O (centres unmarked) [Example 89, 4-{4-[1-(4-fluorophenyl)-1H-imidazol-4-yl]-1H-pyrazol-1-yl}-N-hydroxy-2-methyl-2-(methylsulfonyl)butanamide] |  |  | > 100 |  |  |  |  | 
CC(CCn1cc(CSc2ccc(Br)cc2)nn1)(C(=O)NO)S(C)(=O)=O (centres unmarked) [Example 25, 4-(4-{[(4-bromophenyl)sulfanyl]methyl}-1H-1,2,3-triazol-1-yl)-N-hydroxy-2-methyl-2-(methylsulfonyl)butanamide] |  |  | 10.1 |  |  |  |  | 
C[C@@](CCn1cnc(-c2ccccc2)c1)(C(=O)NO)S(C)(=O)=O (stereo in doubt) [Example 13, N-hydroxy-2-methyl-2-(methylsulfonyl)-4-(4-phenyl-1H-imidazol-1-yl)butanamide] | > 64 | >64.0 |  | > 64 | > 64 |  |  | 
C[C@@](CCn1cc(-c2ccc(-c3ncco3)cc2)cn1)(C(=O)NO)S(C)(=O)=O [Example 12, (2R)—N-hydroxy-2-methyl-2-(methylsulfonyl)-4-{4-[4-(1,3-oxazol-2-yl)phenyl]-1H-pyrazol-1-yl}butanamide] |  |  | 0.963 |  |  |  |  | 
